Measured values taken from patent US10100070B2, “Borate-based base generator, and base-reactive composition comprising such base generator” (FUJIFILM Wako Pure Chemical Corporation, priority 2014, dated 2018).

Tests used:
[1] = Storage stability tests to a base-reactive compound; assay type: physicochemical; details: 0.1 g in 2 g SR-NPG, 1 week at 40° C., viscosity change
[2] = Heat resistance tests (TG-DTA); assay type: physicochemical; details: 10 mg, heated from 30° C. to 500° C. at 10° C./min.
Description: Thus calculated temperature was used as decomposition initiation temperature to evaluate heat resistance of these compounds (base generators).

[3] = Solubility tests to organic solvents and a base-reactive compound
Description: The case where the compounds (base generators) were dissolved into less than 1 mL of the addition amount of the organic solvents or the base-reactive compound was evaluated as [++]; the case where the compounds (base generators) were dissolved into not less than 1 mL and less than 5 mL thereof was evaluated as [+]; the case where the compounds (base generators) were dissolved into not less than 5 mL and less than 10 mL thereof was evaluated as [−]; and the case where the compounds (base generators) were dissolved only into not less than 10 mL thereof was evaluated as [−−].

| Compound | Storage stability in epoxy [1] | TG-DTA Decomposition Initiation Temperature (5% weight loss initiation temperature) [2] | also measured |
| --- | --- | --- | --- |
| 1,3-dimethyl-2-(N,N′,N″,N″-tetramethylguanidino)-4,5-dihydro-3H-imidazolium triphenyl(n-butyl)borate [Comp. Ex. 10] | − |  |  |
| 1,3-dimethyl-2-(N′,N′,N″,N″-tetramethylguanidino)-4,5-dihydro-3H-imidazolium triphenyl(n-butyl)borate [Example 4] | ◯ | 280 °C |  |
| 1-cyclohexyl-3-(4-nitrophenyl)-4,4,5,5-tetramethylbiguanidium triphenyl(n-butyl)borate [Example 9] | ◯ | 223 °C |  |
| CCCC[B-](c1ccccc1)(c1ccccc1)c1ccccc1.CN(C)C(=N[P+](N=C(N(C)C)N(C)C)(N=C(N(C)C)N(C)C)N=C(N(C)C)N(C)C)N(C)C [Example 5, tetrakis(tetramethylguanidino)phosphonium triphenyl(n-butyl)borate] | ◯ | 318 °C |  |
| CC(C)NC(=[N+]=C(N(C)C)N(C)C)NC(C)C.Cc1ccc(C#C[B-](c2ccccc2)(c2ccccc2)c2ccccc2)cc1 [Example 6, 1,2-diisopropyl-4,4,5,5-tetramethylbiguanidium p-tolylethynyl triphenylborate] | ◯ | 185 °C |  |
| tetrakis(tetramethylguanidino)phosphonium p-tolylethynyl triphenylborate [Example 7] | ◯ | 300 °C |  |
| tetrakis(tetramethylguanidino)phosphonium tetraphenylborate [Comp. Ex. 4] | − |  | Solubility in EL ([3]; 0.1 g compound, ethyl lactate added gradually at room temperature, visual): −− (dissolved only into not less than 10 mL thereof); Solubility in SR-NPG ([3]; 0.1 g compound, neopentylglycol diglycidyl ether added gradually at room temperature, visual): −− (dissolved only into not less than 10 mL thereof); Solubility in PGMEA ([3]; 0.1 g compound, propyleneglycol monomethylether acetate added gradually at room temperature, visual): −− (dissolved only into not less than 10 mL thereof); Solubility to organic solvents generally used in this field (in words) ([3]; conclusion from Table 7): poor solubility; Solubility to the base-reactive compound (in words) ([3]; conclusion from Table 7): poor solubility |
